Measured values: PMC8831520, “Small molecule SWELL1 complex induction improves glycemic control and nonalcoholic fatty liver disease in murine Type 2 diabetes” (Nature Communications, 2022)
Entries after “also recorded” stand apart in the source; their conditions may differ.

Assays:
[1] = system: insulin-AKT2-AS160 signaling in 3T3-F442A cells; assay: Insulin-stimulated AKT2-AS160 signaling western blot; assay type: cell-based, murine; conditions: 96 h
Method: Adipocytes were washed twice in ice-cold phosphate buffer saline and lysed in RIPA buffer (150 mM NaCl, 20 mM HEPES, 1% NP-40, 5 mM EDTA, pH 7.4) with proteinase/phosphatase inhibitors (Roche). The cell lysate was further sonicated in 10 s cycle intervals 2–3 times and centrifuged at 18,407×g for 30 min at 4 °C and repeated one more time to remove the excess fat. The supernatant was collected and further estimated for protein concentration using a DC protein assay kit (Bio-Rad). Fat and liver tissues were homogenized and suspended in RIPA buffer with inhibitors and further processed in a similar fashion as described above. HUVECs were also prepared in a similar fashion except the lysates were spun only once to remove the cells debris to obtain the clear supernatant. For islets, either human or mouse islets were washed twice with phosphate buffer saline (PBS) and lysed using RIPA buffer containing protease and phosphatase inhibitors. The lysate was further clarified by freezing in liquid nitrogen for about 10 s for three cycles. The supernatant was collected from the whole lysate centrifuged at 16,260×g for 20 min at 4 °C. […] For soleus muscle, the tissue was homogenized in a Bullet Blender homogenizer (Speed-9, Time-3 mins) in 8 volumes of ice-cold muscle homogenization buffer (50 mM Tris, 25 mM NaCl, 0.2% Nonidet P-40, 5 mM EGTA, 2.5 mM EDTA, 20 mM NaF, 20 mM Na4P2O7·10H2O, 2 mM Na3VO4, pH 7.4) supplemented with protease/phosphatase inhibitor (Roche). The homogenized lysate was centrifuged two times at 18,500×g for 20 min at 4 °C and supernatant was collected for protein estimation. Protein samples were further prepared by boiling in 2X or 4X Laemmli buffer. Approximately 10–60 µg of total protein was loaded in 4–15% gradient gel (Bio-Rad) for separation and protein transfer was carried out onto the PVDF membranes (Bio-Rad). […] The images were further analyzed for band intensities using ImageJ software. […]

[2] = system: murine islets; assay: GSIS perifusion of palmitate-treated murine islets; assay type: cell-based, mouse; conditions: 10 µM for 4 days prior to and during 1 mM palmitate 16 h, washed off during GSIS
[3] = system: eWAT adipocytes; assay: Adipocyte size in eWAT of treated mice; assay type: in vivo, mouse; conditions: 5 days, vs vehicle
Method: Mice epididymal white adipose tissue (eWAT) was isolated and fixed in 10% neutral buffer formalin for 24 h at 4 °C. The formalin-fixed eWAT tissue was washed twice with 1XPBS buffer and dehydrated in a series of ethanol gradient. The dehydrated tissue was embedded in paraffin wax and 10 μm sections were cut by automated microtome and mounted on positively charged slides. Hematoxylin and eosin staining of the slides was performed at the Musculoskeletal Research Center, Washington University in St. Louis. Images were captured by Zeiss Axioscop with 10X objective and analyzed by ImageJ software. Measurement of adipocyte area was performed using the polygon selection tool of ImageJ. All quantifications were performed by blinded independent observers.

[4] = system: primary hepatocytes; assay: Signaling in cultured primary hepatocytes; assay type: cell-based, mouse; conditions: 10 µM, 24–48 h, SWELL1-dependent
Method: For primary hepatocytes isolation, the SWELL1^fl/fl (Wildtype, WT) and Albumin-Cre/SWELL1^fl/fl (Knockout, KO) mice were anesthetized using isoflurane. A 24 G i.v. catheter was inserted into the portal vein and a buffer containing HBSS (Ca^2+ and Mg^2+ free) + 0.5 mM EGTA was perfused through the liver at a rate of 4.5 mL/min. The portal vein was quickly cut after the perfusion began. The liver was perfused until it was free from blood and subsequently perfused with DMEM + 1x Pyruvate+ Type IV Collagenase (Sigma C5138) (1 mg/mL) for 4–5 min until the liver was soft. The liver was excised and put into 10 mL DMEM + collagenase solution. The tissue was broken down by agitation and passed through 25- and 10-mL pipette until the cells were free. The cells were suspended in 15 mL cold DMEM + 10% FBS + 1% P/S (penicillin and streptomycin). The cells were then passed through a 100 µm filter and spun at 50×g for 2 min. The supernatant was discarded and the cell pellet was washed with 25 mL of DMEM + 10% FBS + 1% P/S media three times. Cells were checked for viability by diluting 1:2 with Trypan blue and batches with >80% viability were used. The hepatocytes were then plated on Type I Collagen (75 µg/mL) coated dish with a density of 500,000 cells per well (6-well) in DMEM + 10% FBS + 1% P/S media.

[5] = system: ICl,SWELL; set-up: method as in PMID 11724753; conditions: cited from earlier work
[6] = set-up: method as in Zhang et al., Experimental Neurology, 2008; conditions: ref Zhang et al., Experimental Neurology, 2008; cited from earlier work

CCCCC1(C2CCCC2)Cc2cc(OCCCC(=O)O)c(Cl)c(Cl)c2C1=O (stereo not drawn) [SN-401, 4-((2-butyl-6,7-dichloro-2-cyclopentyl-1-oxo-2,3-dihydro-1H-inden-5-yl)oxy)butanoic acid]
insulin-stimulated levels of pAS160 ([1]; 500 nM, WT adipocytes): enhanced | insulin-stimulated levels of pAKT2 ([1]; 10 µM preadipocytes, 500 nM adipocytes): enhanced | effects on insulin-AKT2-AS160 signaling in SWELL1 KO adipocytes ([1]; SWELL1 KO 3T3-F442A adipocytes, 500 nM): absent | glucose-stimulated insulin secretion after palmitate [2]: normalized | adipocyte size ([3]; HFD-fed mice): unchanged; also recorded: no significant differences | adipocyte size reduction ([3]; KKAy mice): 9% | pAS160 in primary hepatocytes [4]: robustly induces | IC50 [5]: ~5 µM | blood brain barrier passage [6]: does not cross the blood brain barrier
